According to patent publication US12109192B2, “Organic acid addition salts of S-pindolol” (ACTIMED THERAPEUTICS LTD, priority 2020, dated 2024):
≈ marks a conversion by molar mass, not a printed value. Read-outs that look alike come from different tables or passages of the source.

How the values were obtained:
[1] = as measured at 25° C.; for a monocarboxylic acid pKa1 is the pKa; cited from earlier work
[2] = Dynamic vapour sorption (DVS); type: physicochemical; details: for DVS mass uptake / DVS mass uptake as equivalents of water: at 90% RH, 25° C.; for solid form after DVS (XRPD): post-DVS; for hygroscopicity: DVS up to 90% RH
Procedure: Approximately 10-20 mg of sample was placed into a mesh vapour sorption balance pan and loaded into an Intrinsic dynamic vapour sorption balance by Surface Measurement Systems. The sample was subjected to a ramping profile from 40-90% relative humidity (RH) at 10% increments, maintaining the sample at each step until a stable weight had been achieved (dm/dt 0.004%, minimum step length 30 minutes, maximum step length 500 minutes) at 25° C. After completion of the sorption cycle, the sample was dried using the same procedure to 0% RH and then a second sorption cycle back to 40% RH. Two cycles were performed. The weight change during the sorption/desorption cycles were plotted, allowing for the hygroscopic nature of the sample to be determined. XRPD analysis was then carried out on any solid retained.

[3] = Thermodynamic solubility; details: unbuffered water, thermodynamic from solid

DVS mass uptake [2] [wt. %]	DVS mass uptake as equivalents of water [2] [eq. water]	solid form after DVS (XRPD) [2]	Compound	pKa1 [1]	also measured
–	–	–	O=C(O)c1cccc2ccccc12 [1-naphthoic acid]	3.67	–
–	–	–	O=C(O)c1ccc2ccccc2c1 [2-naphthoic acid]	4.16	–
–	–	–	O=C(O)[C@@H](O)c1ccccc1 [S-(+)-mandelic acid]	3.37	–
0.23	0.05	Pattern 1 retained, mass uptake	CC(C)NC[C@H](O)COc1cccc2[nH]ccc12.O=C(O)c1ccccc1 [S-pindolol benzoate Pattern 1, S-pindolol benzoate]	–	Thermodynamic solubility, free base concentration (pH 1.2): 29.9 mg/mL; solid form after thermodynamic solubility experiment (pH 1.2): Converted to amorphous.; Thermodynamic solubility, free base concentration (pH 4.5): 20.1 mg/mL; solid form after thermodynamic solubility experiment (pH 4.5): Converted to amorphous.; Thermodynamic solubility, free base concentration (pH 6.8): 17.4 mg/mL; solid form after thermodynamic solubility experiment (pH 6.8): Pattern 1 retained.
–	–	Pattern 2 retained, organic solvent	CC(C)NC[C@H](O)COc1cccc2[nH]ccc12.O=C(O)c1ccccc1 [S-pindolol benzoate Pattern 2, S-pindolol benzoate]	–	hygroscopicity [2]: non-hygroscopic; Thermodynamic solubility, free base concentration (pH 1.2): 23.5 mg/mL; solid form after thermodynamic solubility experiment (pH 1.2): Salt disproportionated.; Thermodynamic solubility, free base concentration (pH 4.5): 17.6 mg/mL; solid form after thermodynamic solubility experiment (pH 4.5): Pattern 2 retained.; Thermodynamic solubility, free base concentration (pH 6.8): 9.9 mg/mL; solid form after thermodynamic solubility experiment (pH 6.8): Pattern 2 retained.
0.36	0.05	remained unchanged	CC(C)NC[C@H](O)COc1cccc2[nH]ccc12 [S-pindolol free base, (2S)-1-(1H-indol-4-yloxy)-3-(propan-2-ylamino)propan-2-ol, reference compound]	–	solubility thermodynamic [3]: 1.8 mg/mL (≈ 7.25 mM); hygroscopicity [2]: slightly hygroscopic
0.70	0.14	retained	CC(C)NC[C@H](O)COc1cccc2[nH]ccc12.O=C(O)CCC(=O)O [S-pindolol succinate Pattern 1, S-pindolol succinate]	–	–
–	–	–	O=C(O)CCCC(=O)O [glutaric acid]	4.34	–
–	–	–	O=C(O)Cc1ccccc1 [phenylacetic acid]	4.31	–
–	–	–	Cc1ccccc1C(=O)O [toluic acid]	4-5	–
